Series [1] in a line: in vivo. The following applies: Sprague-Dawley, rat, iv, 1.2 mg/kg.
Description: Clearance in sprague dawley rat at 1.2 mg/kg intra venous dosage
Series [2] in a line: in vivo. The following applies: rat.
Description: Half life in lambda2 phase in rat
A short description of series [3]: in vivo. The following applies: rat. This is another data set of the same source.
Description: Half life in lambda1 phase in rat
A short description of series [4]: in vivo. To be noted: Sprague-Dawley, rat, po, 1.2 mg/kg.
Description: Percent bioavailability in sprague-dawley rat at a dosage(inta venous 1.2 mg/kg, oral 5 mg/kg )

Some results are limits rather than exact numbers.

clearance, half-life and bioavailability data for 2 molecules are collected here from ChEMBL document CHEMBL1145229, “Identified a morpholinyl-4-piperidinylacetic acid derivative as a potent oral active VLA-4 antagonist” (Bioorg Med Chem Lett, 2005).

As usually defined, the clearance is the volume of plasma or blood freed of the substance per unit of time. Read a low clearance as a low capacity for elimination. Usually half-life stands for the time needed for the level to fall by half in the phase considered. Lower therefore signals fast loss. What is called bioavailability is dose-corrected exposure relative to a reference, in per cent. Read a high bioavailability as much systemic uptake. On to `Cc1ccccc1NC(=O)Nc1ccc(CC(=O)N2CCCC2C(=O)NCCCCC(=O)O)cc1` (stereo not drawn), for which, in series [1], the clearance turned out to be 75.1 mL/min/kg. Moreover, the half-life in series [2] came to 9.1 min; in series [3] it was 2.8 min. The bioavailability in series [4] is less than 1%.
Turning to `Cc1ccccc1NC(=O)Nc1ccc(CC(=O)N2CCCC2C(=O)N2CCC(CC(=O)O)CC2)cc1` (stereo not drawn), in series [1], the clearance stood at 41.3 mL/min/kg. Also, the values for the half-life in series [2] and in series [3] were 20.2 min and 5.8 min, respectively. Moreover, the bioavailability in series [4] was less than 1%.
